Legend:
[1] = target: Stromal cell-derived factor 1 (Homo sapiens, UniProt P48061); experiment: Inhibition of SDF-1 alpha induced cell migration in human SUP-T1 cells pre-incubated for 30 mins followed by SDF-1 alpha addition measured after 3 hrs by cell Titer-96 reagent based analysis
[2] = target: C-X-C chemokine receptor type 4 (Homo sapiens, UniProt P61073); experiment: Binding affinity to CXCR4 (unknown origin) expressed in CHO cells incubated for 40 mins by competitive binding assay method
Chain of C-X-C chemokine receptor type 4 (P61073 whole entry): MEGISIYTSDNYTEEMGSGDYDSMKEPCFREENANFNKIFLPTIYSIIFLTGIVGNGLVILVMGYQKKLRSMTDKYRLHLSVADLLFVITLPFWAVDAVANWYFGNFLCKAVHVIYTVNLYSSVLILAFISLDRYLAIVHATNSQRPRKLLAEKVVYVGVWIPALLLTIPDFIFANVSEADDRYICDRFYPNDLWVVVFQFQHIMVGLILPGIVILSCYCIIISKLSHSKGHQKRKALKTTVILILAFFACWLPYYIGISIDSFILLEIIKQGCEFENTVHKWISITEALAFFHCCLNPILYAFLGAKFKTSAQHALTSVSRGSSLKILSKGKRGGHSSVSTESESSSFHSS

Chain of Stromal cell-derived factor 1 (P48061 whole entry): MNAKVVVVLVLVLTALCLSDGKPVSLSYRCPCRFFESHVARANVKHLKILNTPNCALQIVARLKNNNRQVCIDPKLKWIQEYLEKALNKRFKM

Structure (SMILES) | IC50 [1] | IC50 [2]
CCOC(=O)C1CNc2c(OC)cc(Cc3cnc(N)nc3N)c(OC)c2C1 (stereo not given) | 621 nM | 
Cc1ccnc2c(N)cc(Cc3cnc(N)nc3N)cc12 |  | 68 nM
COc1cc(Cc2cnc(N)nc2N)cc2c1N(CCOC(C)=O)CCC2C (stereo not given) |  | 68 nM
Nc1ncc(Cc2ccc3ncccc3c2)c(N)n1 |  | 119 nM
COc1cc(Cc2cnc(N)nc2N)cc2c(C)cc(C)nc12 |  | 122 nM

From BindingDB's records for PubMed 32492596 (Tsinghua University, 2020)
